Earlier results on 1 molecule are cited in US6645979B2, “(7-(3-carboxyphenyl)-4-chloroisoquinolin-1-yl)guanidine” (Pfizer Inc., priority 2000, dated 2003).

This data set deals with urinary-type plasminogen activator (uPA, urokinase) (Homo sapiens, UniProt P00749). Conditions: general statement, no value given.

Take `NC(N)=Nc1ncc(Cl)c2ccc(-c3cccc(C(=O)O)c3)cc12` [Compound (I), (7-(3-carboxyphenyl)-4-chloroisoquinolin-1-yl)guanidine]: the uPA antagonist potency entry is listed as “potent”.
